According to patent US20080261902A1, “Pharmaceutical composition containing polydatin and its application” (Shenzhen Neptunus Pharmaceutical Co., Ltd., priority 2005, published 2008):

Test system: dogs in hemorrhagic shock
Assay: Treatment effect of polydatin drug compositions to dogs in hemorrhagic shock (Embodiment 20)
Format: in vivo, Beagle dogs

NCCc1ccc(O)c(O)c1 [dopamine]
average survival time (hour, x ± s) (3.0 mg/kg, continuous intravenous infusion 120 min, long-term survival calculated with 168 hours): 103.00 ± 89.01 h
survival rate (24 hours, 3.0 mg/kg): 3 number/5
survival rate (48 hours, 3.0 mg/kg): 3 number/5
survival rate (72 hours, 3.0 mg/kg): 3 number/5
pulse pressure difference (FIG. 2) (dogs in hemorrhagic shock, during and after infusion): increasing range is obviously lower than the polydatin groups
